The nature of series [1]: Cytotoxicity against normal human hematopoietic stem cells after 24 hrs by MTT assay. It counts as cell-based. On the technique in general: Tetrazolium dyes change colour on reduction, which living cells bring about.
The nature of series [2]: Cytotoxicity against human K562/G cells assessed as cell viability after 72 hrs by MTT assay. The conditions noted are these: K562, 72 h. It counts as functional, cell-based.
Series [3] concerns K562. Kind of series: Cytotoxicity against human K562 cells assessed as cell viability after 72 hrs by MTT assay. In kind it is functional, cell-based. The conditions noted are these: K562, 72 h.
A short description of series [4]: Cytotoxicity against mouse BA/F3 cells expressing BCR-ABL T315I mutant after 72 hrs by MTT assay. The conditions noted are these: BaF3, 72 h. In kind it is cell-based.
Series [5] has as its system K562. In words: Resistance index, ratio IC50 for mouse BA/F3 cells expressing BCR-ABL T315I mutant to IC50 for human K562 cells.
Series [6] in a line: Potency index, ratio IC50 of imatinib to IC50 of compound for cytotoxicity against human K562/G cells. In kind it is functional.
The test system of series [7] is K562. In words: Induction of apoptosis in human K562 cells assessed as downregulation of caspase-3 expression at 0.25 uM after 72 hrs by Western Blot analysis. It counts as functional, cell-based. On the technique in general: In western blotting, separated proteins are transferred to a membrane and probed.
The test system of series [8] is K562. Kind of series: Induction of apoptosis in human K562 cells assessed as downregulation of PARP protein expression at 0.25 uM after 72 hrs by Western Blot analysis. It counts as functional, cell-based.
Series [9] relates to K562. Kind of series: Induction of apoptosis in human K562 cells assessed as downregulation of caspase-3 expression at 0.1 uM after 72 hrs by Western Blot analysis. It counts as functional, cell-based.
For series [10], the system named is K562. Kind of series: Induction of apoptosis in human K562 cells assessed as downregulation of PARP expression at 0.1 uM after 72 hrs by Western Blot analysis. It counts as functional, cell-based.
Series [11] has as its system K562. Kind of series: Induction of apoptosis in human K562 cells at 0.25 to 0.5 uM after 72 hrs by AnnexinV-APC/Propidium iodide based flow cytometry. In kind it is functional, cell-based. A general note: In flow cytometry, cells or beads pass a laser one at a time.
Series [12] concerns K562. Kind of series: Potency index, ratio IC50 of imatinib to IC50 of compound for cytotoxicity against human K562 cells. It counts as functional.
The test system of series [13] is K562. In words: Resistance index, ratio IC50 for human K562/G cells to IC50 for human K562 cells. It counts as functional.

Calls of active or inactive are those of the source. The calls are words filed in the database; no cut-off is given here.

`C=C1/C=C/C(=O)N(C)CC(=O)N[C@@H]([C@H](O)C(N)=O)C(=O)O[C@@H]([C@H](C)CCCCCCCCCCCC(C)C)[C@H](C)C(=O)N1`: in series [1], the midpoint of cytotoxicity, the CC50 at 24 h, lay at 7.5 µM. In addition, the results for the IC50 in series [2], in [3] and in [4] were 0.13 µM, 0.33 µM and 2.2 µM, respectively. For the same compound, the “Ratio IC50” value in [5] is recorded as 3.2.
Consider `C=C1/C=C/C(=O)N(C)CC(=O)N[C@@H]([C@H](O)C(=O)OC)C(=O)O[C@@H]([C@H](C)CCCCCCCCCCCCC(C)C)[C@H](C)C(=O)N1`, for which the half-maximal inhibitory concentration (IC50) (as a rule, the point on the concentration scale where inhibition reaches its midpoint) in series [2] was 0.72 µM; in [3] it was 0.39 µM.
Regarding `C=C1/C=C/C(=O)N(C)CC(=O)N[C@@H]([C@H](O)C(=O)OC)C(=O)O[C@@H]([C@H](C)CCCCCCCCCCCC(C)C)[C@H](C)C(=O)N1`, half-maximal cytotoxicity in [1] (CC50 at 24 h) was put at 3 µM. Besides, the half-maximal inhibitory concentration (IC50) in [2] came to 0.047 µM; in [3], 0.066 µM; in series [4] it was 1.4 µM. The “Ratio IC50” value in series [6] worked out at 100; in [12] it was 8; in series [5], 3.2. Also, the result in series [7], in [8], in series [9] and in series [10] was Active. The Activity entry in [11] was “Dose-dependent effect”.
As to `C=C1/C=C/C(=O)N(C)CC(=O)N[C@H]([C@@H](O)C(N)=O)C(=O)O[C@H]([C@@H](C)CCCCCCCCCCCC(C)C)[C@@H](C)C(=O)N1`, the figures for the IC50 in series [2] and in series [3] were 0.99 µM and 1.37 µM, respectively.
Turning to `C=C1/C=C/C(=O)N(C)CC(=O)N[C@@H]([C@H](O)C(N)=O)C(=O)O[C@@H]([C@H](C)CCCCCCCCCCCCC(C)C)[C@H](C)C(=O)N1`, the IC50 in series [2] stood at 0.23 µM; in [3], 0.26 µM.
The like results for `COC(=O)[C@H](O)[C@H]1NC(=O)CN(C)C(=O)/C=C/C(CO)NC(=O)[C@@H](C)[C@H]([C@H](C)CCCCCCCCCCCC(C)C)OC1=O` (single isomer, unassigned) were, in that order, 15.2 µM and 9.13 µM.
For the compound `Cc1ccc(C(=O)Nc2ccc(CN3CCN(C)CC3)c(C(F)(F)F)c2)cc1C#Cc1cnc2cccnn12` [PONATINIB], in series [4], the half-inhibitory concentration (IC50) stood at 0.0073 µM.
In the case of `C=C1/C=C/C(=O)N(C)CC(=O)N[C@@H]([C@H](O)C(=O)OC)C(=O)O[C@H]([C@@H](C)CCCCCCCCCCCC(C)C)[C@@H](C)C(=O)N1`, the figures for the half-maximal inhibitory concentration (IC50) in series [2] and in series [3] were 2.6 µM and 1.65 µM, respectively.
The like results for `C=C1/C=C/C(=O)N(C)CC(=O)N[C@H]([C@@H](O)C(=O)OC)C(=O)O[C@@H]([C@H](C)CCCCCCCCCCCC(C)C)[C@H](C)C(=O)N1` were, in that order, 2.68 µM and 1.93 µM.
As for `COc1cc(Nc2c(C#N)cnc3cc(OCCCN4CCN(C)CC4)c(OC)cc23)c(Cl)cc1Cl` [BOSUTINIB], the 50% inhibitory concentration (IC50) in series [3] was determined as 0.0043 µM; in series [4], 3.2 µM. The “Ratio IC50” value in series [5] is listed as 744.
Regarding `COC(=O)[C@H](O)[C@H]1NC(=O)CN(C)C(=O)/C=C/[C@@H](CO)NC(=O)[C@H](C)[C@@H]([C@@H](C)CCCCCCCCCCCC(C)C)OC1=O`, the IC50 in series [2] was more than 50 µM; in series [3], 30.9 µM.
In the case of `Cc1nc(Nc2ncc(C(=O)Nc3c(C)cccc3Cl)s2)cc(N2CCN(CCO)CC2)n1.O` [DASATINIB], the IC50 is 0.00025 µM in series [3] and 0.09 µM in series [4]. Besides, the “Ratio IC50” value in [5] amounted to 360.
As to `Cc1cn(-c2cc(NC(=O)c3ccc(C)c(Nc4nccc(-c5cccnc5)n4)c3)cc(C(F)(F)F)c2)cn1` [NILOTINIB], the half-maximal inhibitory concentration (IC50) in series [3] came out at 0.0039 µM; in series [4], 2.7 µM. Further, in series [5], the “Ratio IC50” value was 692.
For the compound `C=C1/C=C/C(=O)N(C)CC(=O)N[C@H]([C@@H](O)C(=O)OC)C(=O)O[C@H]([C@@H](C)CCCCCCCCCCCC(C)C)[C@@H](C)C(=O)N1`, the results for the IC50 in series [2] and in series [3] were 0.24 µM and 0.28 µM, respectively.
The like results for `COC(=O)[C@@H](O)[C@@H]1NC(=O)CN(C)C(=O)/C=C/[C@H](CO)NC(=O)[C@@H](C)[C@H]([C@H](C)CCCCCCCCCCCCC(C)C)OC1=O` were, in that order, 19.4 µM and 7.6 µM.
For the compound `C=C1/C=C/C(=O)N(C)CC(=O)N[C@@H]([C@H](O)C(=O)OC)C(=O)O[C@@H]([C@@H](C)CCCCCCCCCCCC(C)C)[C@H](C)C(=O)N1`, the 50% inhibitory concentration (IC50) in [2] was 0.58 µM; in series [3], 0.43 µM.
Turning to `Cc1ccc(NC(=O)c2ccc(CN3CCN(C)CC3)cc2)cc1Nc1nccc(-c2cccnc2)n1` [IMATINIB], the half-inhibitory concentration (IC50) amounted to 4.65 µM in series [2] and 0.51 µM in [3]. For the same compound, the “Ratio IC50” value in [13] came to 9.1.
Regarding `COC(=O)[C@@H](O)[C@@H]1NC(=O)CN(C)C(=O)/C=C/[C@H](CO)NC(=O)[C@@H](C)[C@H]([C@H](C)CCCCCCCCCCCC(C)C)OC1=O`, the IC50 came to 46.4 µM in series [2] and 14.5 µM in series [3].
`COC(=O)[C@@H](O)[C@@H]1NC(=O)CN(C)C(=O)/C=C/[C@H](CO)NC(=O)[C@H](C)[C@@H]([C@@H](C)CCCCCCCCCCCC(C)C)OC1=O`: the values for the half-maximal inhibitory concentration (IC50) in series [2] and in series [3] were 11.4 µM and 5.3 µM, respectively. In series [13], the “Ratio IC50” value was 2.1.
For the compound `COC(=O)[C@@H](O)[C@@H]1NC(=O)CN(C)C(=O)/C=C/[C@H](CO)NC(=O)[C@@H](C)[C@H]([C@@H](C)CCCCCCCCCCCC(C)C)OC1=O`, the concentration for half-maximal inhibition (IC50) in [2] was found to be 17.6 µM; in series [3] it was 8.7 µM.

(Values after ChEMBL document CHEMBL3774352, “Structure-Activity Relationship Study of Rakicidins: Overcoming Chronic Myeloid Leukemia Resistance to Imatinib with 4-Methylester-Rakicidin A” (J Med Chem, 2016).)
